Like-named read-outs stand apart in the source and are kept apart here.
How the values were obtained:
LXR α LBD protein = LXR α LBD protein (Homo sapiens (Human), UniProt Q13133); assay: LXR α radioligand binding assay (SPA, competition with [3H]TO901317); settings: read-out: LXRα Binding Ki
[1] = molecular target: Gal4 DNA binding domain fused to the LBD of LXRα in HEK293 cells (Homo sapiens (Human), UniProt Q13133); assay: LXR luciferase transcriptional reporter gene assay, agonist mode, LXRα; assay type: cell-based; settings: for EC50: read-out: Cell LXRα EC50
LXR β LBD protein = LXR β LBD protein (Homo sapiens (Human), UniProt P55055); assay: biochemical; assay type: binding
[2] = molecular target: Gal4 DNA binding domain fused to the LBD of LXRβ in HEK293 cells (Homo sapiens (Human), UniProt P55055); assay: cell-based
[3] = Biological Test Example 1, read-out: LXRβ Binding Ki
[4] = Biological Test Example 2, agonist mode
[5] = Biological Test Example 2, agonist mode, read-out: Cell LXRβ EC50

Sequence of LXR α LBD protein (Q13133 209-447): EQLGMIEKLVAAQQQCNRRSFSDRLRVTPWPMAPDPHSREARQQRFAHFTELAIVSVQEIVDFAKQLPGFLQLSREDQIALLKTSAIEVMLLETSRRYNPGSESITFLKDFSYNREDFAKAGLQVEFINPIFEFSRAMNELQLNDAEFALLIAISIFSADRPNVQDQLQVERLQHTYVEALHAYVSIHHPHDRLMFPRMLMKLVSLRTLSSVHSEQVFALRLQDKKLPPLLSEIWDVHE
Sequence of Gal4 DNA binding domain fused to the LBD of LXRα in HEK293 cells (Q13133 209-447): as above
Sequence of Gal4 DNA binding domain fused to the LBD of LXRβ in HEK293 cells (P55055 222-460 limits assumed): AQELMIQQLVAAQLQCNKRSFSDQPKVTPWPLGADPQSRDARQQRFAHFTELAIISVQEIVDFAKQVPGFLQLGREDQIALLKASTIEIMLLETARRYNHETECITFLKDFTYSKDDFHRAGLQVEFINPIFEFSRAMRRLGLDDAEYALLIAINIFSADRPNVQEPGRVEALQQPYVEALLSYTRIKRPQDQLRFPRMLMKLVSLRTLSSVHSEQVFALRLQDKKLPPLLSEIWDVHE
Sequence of LXR β LBD protein (P55055 222-460 limits assumed): as above

| Ki (LXR β LBD protein) | Structure (SMILES) | Ki (LXR α LBD protein) | EC50 [1] | EC50 [2] | Cell LXRα efficacy [1] | Ki (LXR β LBD protein; read-out: LXRβ Binding Ki) | Cell LXRβ efficacy [2] | Cell LXRβ efficacy ([2]; agonist mode) | EC50 ([1]; agonist mode) | Ki (LXR β LBD protein; [3]) | Cell LXRβ efficacy [2, 4] | EC50 [2, 5] |
| --- | --- | --- | --- | --- | --- | --- | --- | --- | --- | --- | --- | --- |
| 0.178 µM | CC(C)(O)[C@H]1CCC[C@@H](CN2CCN(c3cccc(S(C)(=O)=O)c3)CC2c2ccccc2)C1 (stereo partly drawn) [48-25, 2-((1S,3R)-3-((4-(3-(methylsulfonyl)phenyl)-2-phenylpiperazin-1-yl)methyl)cyclohexyl)propan-2-ol] | 1.24 µM | > 20 µM | > 20 µM |  |  |  |  |  |  |  |  |
|  | CC(C)[C@@H]1CN(c2ccc(F)c(S(C)(=O)=O)c2)CCN1c1nc2ccc(F)cc2s1 [7-55, (R)-6-fluoro-2-(4-(4-fluoro-3-(methylsulfonyl)phenyl)-2-isopropylpiperazin-1-yl)benzo[d]thiazole] | 0.12 µM | 0.439 µM | 0.106 µM | 439 (68) % | 0.014 µM | 106 (55) % |  |  |  |  |  |
|  | CC(C)[C@@H]1CN(c2cccc(S(C)(=O)=O)c2)CCN1c1ncc(OC(F)F)cn1 [7-11, (R)-5-(difluoromethoxy)-2-(2-isopropyl-4-(3-(methylsulfonyl)phenyl)piperazin-1-yl)pyrimidine] | 0.898 µM | 3.66 µM | 1.2 µM | 3658 (71) % | 0.078 µM |  | 1198 (48) % |  |  |  |  |
|  | Cc1cc(C(F)(F)F)nc(N2CCN(c3ccc(F)c(S(C)(=O)=O)c3)C[C@H]2C(C)C)n1 [7-18, (R)-2-(4-(4-fluoro-3-(methylsulfonyl)phenyl)-2-isopropylpiperazin-1-yl)-4-methyl-6-(trifluoromethyl)pyrimidine] | 0.105 µM | 1.11 µM | 0.161 µM | 1110 (61) % | 0.009 µM | 161 (44) % |  |  |  |  |  |
|  | Cc1coc(-c2ccc(N3CCN(c4ncc(CO)c(C(F)(F)F)n4)[C@H](C(C)C)C3)cc2S(C)(=O)=O)n1 [11-8, (R)-(2-(2-isopropyl-4-(4-(4-methyloxazol-2-yl)-3-(methylsulfonyl)phenyl)piperazin-1-yl)-4-(trifluoromethyl)pyrimidin-5-yl)methanol] | 1.17 µM |  | 0.405 µM | 2934 (53) % | 0.133 µM |  | 405 (53) % | 2.93 µM |  |  |  |
|  | CC(C)[C@@H]1CN(c2ccc(F)c(S(C)(=O)=O)c2)CCN1c1nc2c(F)cccc2s1 [7-54, (R)-4-fluoro-2-(4-(4-fluoro-3-(methylsulfonyl)phenyl)-2-isopropylpiperazin-1-yl)benzo[d]thiazole] | 0.068 µM | 0.371 µM | 0.077 µM | 371 (95) % | 0.009 µM | 77 (80) % |  |  |  |  |  |
|  | COC(=O)c1ccnc(N2CCN(c3ccc(F)c(S(C)(=O)=O)c3)C[C@H]2C(C)C)n1 [7-15, methyl (R)-2-(4-(4-fluoro-3-(methylsulfonyl)phenyl)-2-isopropylpiperazin-1-yl)pyrimidine-4-carboxylate] | 0.213 µM | 1.1 µM | 0.213 µM | 1102 (85) % | 0.02 µM | 213 (65) % |  |  |  |  |  |
|  | CS(=O)(=O)c1cc(N2CCN(c3ncc(CO)c(C(F)(F)F)n3)[C@H](c3ccc(F)cc3)C2)ccc1F [11-7, (R)-(2-(4-(4-fluoro-3-(methylsulfonyl)phenyl)-2-(4-fluorophenyl)piperazin-1-yl)-4-(trifluoromethyl)pyrimidin-5-yl)methanol] | 1.16 µM |  | 0.315 µM | 2240 (13) % | 0.085 µM |  | 315 (14) % | 2.24 µM |  |  |  |
|  | CCN(CCOC)C(=O)c1cnc(N2CCN(c3ccc(F)c(S(C)(=O)=O)c3)C[C@H]2C(C)C)nc1C(F)(F)F [17-14, (R)-N-ethyl-2-(4-(4-fluoro-3-(methylsulfonyl)phenyl)-2-isopropylpiperazin-1-yl)-N-(2-methoxyethyl)-4-(trifluoromethyl)pyrimidine-5-carboxamide] | 0.915 µM |  | > 20 µM |  | 0.113 µM |  |  | > 20 µM |  |  |  |
|  | CC(C)[C@@H]1CN(c2cc(S(C)(=O)=O)c(CO)cc2F)CCN1c1ncc(C(N)=O)c(C(F)(F)F)n1 [17-29, (R)-2-(4-(2-fluoro-4-(hydroxymethyl)-5-(methylsulfonyl)phenyl)-2-isopropylpiperazin-1-yl)-4-(trifluoromethyl)pyrimidine-5-carboxamide] | 1.27 µM |  | 0.142 µM | 1950 (15) % | 0.191 µM |  | 142 (17) % | 1.95 µM |  |  |  |
|  | Cc1nc(N2CCN(c3ccc(F)c(S(C)(=O)=O)c3)C[C@H]2C(C)C)ncc1Br [7-20, (R)-5-bromo-2-(4-(4-fluoro-3-(methylsulfonyl)phenyl)-2-isopropylpiperazin-1-yl)-4-methylpyrimidine] | 0.101 µM |  | 0.142 µM | 787 (80) % | 0.008 µM | 142 (57) % |  | 0.787 µM |  |  |  |
|  | CS(=O)(=O)c1cc(N2CCN(C[C@H]3CC[C@H](C(F)(F)F)CC3)[C@@H](c3ccccc3)C2)ccc1CO (single isomer, unassigned) [48-45] | 0.075 µM | 0.431 µM |  | 431 (65) % |  |  |  |  | 0.021 µM | 33% | 0.14 µM |
|  | COC(=O)c1cnc(N2CCN(c3ccc(F)c(S(C)(=O)=O)c3)CC2C(C)(C)C)nc1C(F)(F)F (stereo not shown) [9-5, methyl 2-(2-(tert-butyl)-4-(4-fluoro-3-(methylsulfonyl)phenyl)piperazin-1-yl)-4-(trifluoromethyl)pyrimidine-5-carboxylate] | 0.041 µM | 0.504 µM | 0.082 µM | 504 (46) % | 0.009 µM |  | 82 (21) % |  |  |  |  |
|  | CC(C)[C@@H]1CN(c2ccc(F)c(S(C)(=O)=O)c2)CCN1c1ncc(O)c(C(F)(F)F)n1 [Cpd No 30-1, (R)-2-(4-(4-fluoro-3-(methylsulfonyl)phenyl)-2-isopropylpiperazin-1-yl)-4-(trifluoromethyl)pyrimidin-5-ol] | 0.169 µM | 3.12 µM | 0.729 µM | 3121 (100) % | 0.024 µM | 729 (98) % |  |  |  |  |  |
| 2.45 µM | COCCCN(C)C(=O)c1cnc(N2CCN(c3ccc(F)c(S(C)(=O)=O)c3)C[C@H]2C(C)C)nc1C [17-31, (R)-2-(4-(4-fluoro-3-(methylsulfonyl)phenyl)-2-isopropylpiperazin-1-yl)-N-(3-methoxypropyl)-N,4-dimethylpyrimidine-5-carboxamide] | > 3.33 µM |  | > 20 µM |  |  |  |  | > 20 µM |  |  |  |
|  | CC(C)[C@@H]1CN(c2ccc(C#N)c(S(C)(=O)=O)c2)CCN1c1ncc([C@@H](C)O)c(C(F)(F)F)n1 (single isomer, unassigned) [12-4] | 1.45 µM | 4.46 µM | 0.652 µM | 4457 (58) % | 0.111 µM |  | 652 (50) % |  |  |  |  |
|  | CS(=O)(=O)c1cc(N2CCN(C[C@H]3CC[C@@H](C(F)(F)F)CC3)[C@@H](c3ccccc3)C2)ccc1C#N (single isomer, unassigned) [50-6] | 0.241 µM | 0.429 µM |  | 429 (81) % |  |  |  |  | 0.058 µM | 53% | 0.226 µM |
|  | CC(C)[C@@H]1CN(c2ccc(F)c(S(C)(=O)=O)c2)CCN1c1ccnc(OC(F)F)c1 [Cpd No 44-1, (R)-1-(2-(difluoromethoxy)pyridin-4-yl)-4-(4-fluoro-3-(methylsulfonyl)phenyl)-2-isopropylpiperazine] | 0.045 µM | 0.258 µM | 0.07 µM | 258 (99) % | 0.007 µM | 70 (83) % |  |  |  |  |  |
|  | CNC(=O)c1cnc(N2CCN(c3ccc(F)c(S(C)(=O)=O)c3)C[C@H]2C(C)C)nc1C(F)(F)F [17-3, (R)-2-(4-(4-fluoro-3-(methylsulfonyl)phenyl)-2-isopropylpiperazin-1-yl)-N-methyl-4-(trifluoromethyl)pyrimidine-5-carboxamide] | 2.69 µM |  | 0.448 µM | 5514 (29) % | 0.188 µM |  | 448 (18) % | 5.51 µM |  |  |  |
|  | CC(C)[C@@H]1CN(c2ccc(F)c(S(C)(=O)=O)c2)CCN1c1ncc(C(F)(F)F)c(C(N)=O)n1 [4-7, (R)-2-(4-(4-fluoro-3-(methylsulfonyl)phenyl)-2-isopropylpiperazin-1-yl)-5-(trifluoromethyl)pyrimidine-4-carboxamide] | 1.68 µM | 2.95 µM | 0.477 µM | 2952 (73) % | 0.173 µM |  | 477 (61) % |  |  |  |  |
|  | Cc1nc(N2CCN(c3ccc(F)c(S(C)(=O)=O)c3)C[C@H]2C(C)C)ncc1C(=O)N(C)CCCO [17-27, (R)-2-(4-(4-fluoro-3-(methylsulfonyl)phenyl)-2-isopropylpiperazin-1-yl)-N-(3-hydroxypropyl)-N,4-dimethylpyrimidine-5-carboxamide] | > 3.33 µM | > 20 µM | > 20 µM |  | > 2.5 µM |  |  |  |  |  |  |
|  | CC(C)[C@H]1CN(c2ccc(CO)c(S(C)(=O)=O)c2)CCN1CC1CCC(O)(C(F)(F)F)CC1 (stereo partly drawn) [Cpd No 48-38, (S)-4-((4-(4-(hydroxymethyl)-3-(methylsulfonyl)phenyl)-2-isopropylpiperazin-1-yl)methyl)-1-(trifluoromethyl)cyclohexan-1-ol] | 0.244 µM | 0.106 µM | 0.03 µM | 106 (86) % | 0.027 µM |  | 30 (81) % |  |  |  |  |
